Consider 22 molecules from ChEMBL document CHEMBL4842355, “Improved potency of pyridin-2(1H)one derivatives for the treatment of mechanical allodynia” (Eur J Med Chem, 2021).

For assay [1], the target named is T1, Mitogen-activated protein kinase 14 (Homo sapiens, UniProt Q16539). In words: Inhibition of p38 alpha (unknown origin) assessed as residual activity at 1 uM relative to control.
For another assay, the system named is Rattus norvegicus. The experiment in a line: Anti-allodynic activity in complete freund's adjuvant-induced rat inflammatory pain model assessed as inhibition of inflammatory mechanical allodynia at 10 uM, ic administered 30 min before CFA injection and measured after 120 mins by Von Frey filament assay relative to control. The class given is functional. The following applies: 2.5 h, time 150 min.

Assay [2] deals with T1, Mitogen-activated protein kinase 14. The experiment in a line: Inhibition of p38 alpha (unknown origin) at 1 uM relative to control.
Assay [3] has the same target. The experiment in a line: Inhibition of p38 alpha (unknown origin).

Molecules are shown by their SMILES.

T1 sequence (Q16539 whole entry): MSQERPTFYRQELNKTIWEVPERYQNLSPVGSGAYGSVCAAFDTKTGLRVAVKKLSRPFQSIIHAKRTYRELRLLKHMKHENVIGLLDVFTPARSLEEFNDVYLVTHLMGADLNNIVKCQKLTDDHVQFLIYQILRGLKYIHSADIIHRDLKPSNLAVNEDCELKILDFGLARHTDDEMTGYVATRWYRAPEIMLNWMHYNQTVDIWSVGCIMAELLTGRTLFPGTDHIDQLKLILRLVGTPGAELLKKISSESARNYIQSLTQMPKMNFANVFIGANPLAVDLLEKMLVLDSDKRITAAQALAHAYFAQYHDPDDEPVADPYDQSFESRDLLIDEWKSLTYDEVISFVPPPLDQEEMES

Turning to `O=c1[nH]cc(Nc2ccccc2Br)cc1-c1cccc2[nH]ccc12`, in assay [1], the Activity was 45%. `COc1ccccc1Nc1c[nH]c(=O)c(-c2cccc3[nH]ccc23)c1`: the inhibition in vivo – broadly, the relative decrease from the control value, in per cent – at 10 µM with Rattus norvegicus is over 80%. Moreover, the Activity in assay [1] came out at 50%. As to `O=c1[nH]cc(Nc2cccc([N+](=O)[O-])c2)cc1-c1cccc2[nH]ccc12`, the Activity in assay [1] is 73.9%. `O=c1[nH]cc(Nc2ccncc2)cc1-c1cccc2[nH]ccc12`: the inhibition in vivo at 10 µM in the assay with Rattus norvegicus was 100%. Moreover, in assay [2], the inhibition (as a rule, the change of the read-out against control, counted positive when it falls) was determined as 33%. In addition, the Activity in assay [1] was determined as 67%. Consider `O=c1[nH]cc(Nc2cccc(F)c2)cc1-c1cccc2[nH]ccc12`, for which, in the assay on Rattus norvegicus, the inhibition in vivo at 10 µM is over 80%. Moreover, the midpoint of inhibition in assay [3], the IC50, lay at 1400 nM. The Activity in assay [1] was 47%. For the molecule `O=c1[nH]cc(Nc2ccccc2F)cc1-c1cccc2[nH]ccc12`, the inhibition in assay [2] worked out at 72%. The Activity in assay [1] is 28%. Regarding `O=c1[nH]cc(Nc2ccc(F)cc2)cc1-c1cccc2[nH]ccc12`, the inhibition in vivo at 10 µM with Rattus norvegicus was over 80%. Moreover, half-maximal inhibition in assay [3] (IC50) was put at 400 nM. Further, the Activity in assay [1] is 39%. Regarding `O=c1[nH]cc(Nc2cccc(Br)c2)cc1-c1cccc2[nH]ccc12`, in assay [3], the midpoint of inhibition, the IC50, lay at 700 nM. The Activity in assay [1] worked out at 31%. For the molecule `O=c1[nH]cc(Nc2ccccc2)cc1-c1ccccc1Br`, in the assay on Rattus norvegicus, the inhibition in vivo at 10 µM amounted to 65%. The molecule further registered an inhibition in assay [2] of 41%. The Activity in assay [1] is 59%. For the molecule `Cc1ccccc1Nc1c[nH]c(=O)c(-c2cccc3[nH]ccc23)c1`, in the assay on Rattus norvegicus, the inhibition in vivo at 10 µM was over 80%. Moreover, in assay [3], the IC50 (usually the midpoint of a concentration-inhibition curve) stood at 1100 nM. Besides, the Activity in assay [1] turned out to be 33%.

For the molecule `O=c1[nH]cc(Nc2cccnc2)cc1-c1cccc2[nH]ccc12`, the Activity in assay [1] was determined as 64%. As for `O=c1[nH]cc(Nc2ccccc2[N+](=O)[O-])cc1-c1cccc2[nH]ccc12`, the inhibition in vivo at 10 µM in the assay on Rattus norvegicus is over 80%. In addition, in assay [1], the Activity came out at 92.3%.

Take `O=c1[nH]cc(Nc2ccccn2)cc1-c1cccc2[nH]ccc12`: the inhibition in vivo at 10 µM with Rattus norvegicus is over 80%. Also, the Activity in assay [1] is 70%. Consider `CCOC(=O)c1ccccc1Nc1c[nH]c(=O)c(-c2cccc3[nH]ccc23)c1`, for which the Activity in assay [1] was 104%. Consider `COc1cccc(Nc2c[nH]c(=O)c(-c3cccc4[nH]ccc34)c2)c1`, for which the inhibition in vivo at 10 µM in the assay with Rattus norvegicus was over 80%. In assay [1], the Activity was determined as 50%. On to `CCOC(=O)c1cccc(Nc2c[nH]c(=O)c(-c3cccc4[nH]ccc34)c2)c1`, for which the inhibition in vivo at 10 µM with Rattus norvegicus was over 80%. The Activity in assay [1] came out at 81%.

As to `COc1ccc(Nc2c[nH]c(=O)c(-c3cccc4[nH]ccc34)c2)cc1`, the inhibition in vivo at 10 µM in the assay on Rattus norvegicus came to 16%. In assay [1], the Activity was determined as 59%. `O=c1[nH]cc(Nc2cccc(O)c2)cc1-c1cccc2[nH]ccc12` returned an IC50 in assay [3] of 1000 nM. Also, the Activity in assay [1] came out at 34%. As to `CCOC(=O)c1ccc(Nc2c[nH]c(=O)c(-c3cccc4[nH]ccc34)c2)cc1`, in assay [1], the Activity was found to be 86%. Take `O=c1[nH]cc(Nc2ccc([N+](=O)[O-])cc2)cc1-c1cccc2[nH]ccc12`: the inhibition in vivo at 10 µM in the assay on Rattus norvegicus stood at 98%. Besides, in assay [1], the Activity stood at 93%. Molecule `O=c1[nH]cc(Nc2ccc(Br)cc2)cc1-c1cccc2[nH]ccc12` came in with an IC50 in assay [3] of 2400 nM. Moreover, in assay [1], the Activity was 43%. Turning to `O=c1[nH]cc(Nc2ccccc2)cc1-c1cccc2[nH]ccc12`, the Activity in assay [1] turned out to be 59%.
